Experimental data: patent publication US8871899B2, “Control of viral-host membrane fusion with hydrogen bond surrogate-based artificial helices” (priority 2007, dated 2014)
Where a SMILES comes first, the peptide text is derived from it. Where no end group is shown, it is not given here. The star is where a group is joined. 4‑pentenoyl = C=CCCC(=O)*

Tests used:
[1] = target: IZN17 (stable model of the gp41 N-terminal three strand coiled-coil); assay: Fluorescence polarization-based competitive binding assay (displacement of fluorescein-labeled peptide 12 from IZN17); parameters: species or system HIV-1; settings: for Binding to IZN17, result in words: fluorescence polarization competition with probe 12
[2] = Circular dichroism spectroscopy (helicity); format: physicochemical; settings: 10% trifluoroethanol in PBS buffer
Method: CD spectra were recorded on an AVIV 202SF CD spectrometer equipped with a temperature controller using 1 mm length cells and a scan speed of 5 nm/min. The spectra were averaged over 10 scans with the baseline subtracted from analogous conditions as that for the samples. The samples were prepared in 0.1× phosphate buffered saline (13.7 mM NaCl, 1 mM phosphate, 0.27 mM KCl, pH 7.4), containing 10% trifluoroethanol, with the final peptide concentration of 50-100 μM. The concentrations of unfolded peptides were determined by the UV absorption of the tyrosine residue at 276 nm in 6.0 M guanidinium hydrochloride aqueous solution. The helix content of each peptide was determined from the mean residue CD at 222 nm, [θ]222 (deg cm^2 dmol^−1) corrected for the number of amino acids. Percent helicity was calculated from the ratio [θ]222/[θ]max, where [θ]max=(−44000+250T)(1−k/n), with k=4.0 and n=number of residues. For details on θmax calculations for HBS helices, see Wang et al., “Evaluation of Biologically Relevant Short α-Helices Stabilized by a Main-chain Hydrogen-bond Surrogate,” J. Am. Chem. Soc. 128:9248-56 (2006), which is hereby incorporated by reference in its entirety.
It was conjectured that stabilization of this peptide in helical conformation with the HBS approach may increase its helicity and affinity for IZN17. […]

[3] = system: CHO[HIVe] (clone 7d2) cells expressing HXB2 envelope and tat cocultured with U373-MAGI cells; settings: literature report; cited from earlier work
[4] = system: CHO[HIVe] (clone 7d2) cells expressing HXB2 envelope and tat cocultured with U373-MAGI cells; format: cell-based, HIV-1
Method: Cell-cell fusion (i.e., syncytium formation) was assayed by coculturing CHO[HIVe] (clone 7d2) cells expressing HXB2 envelope and tat with U373-MAGI cells (M. Emerman and A. Geballe, National Institutes of Health AIDS Research and Reference Reagent Program) in the presence of different concentrations of peptides 1-10. Cell fusion allows the expression of nuclear β-galactosidase from the U373-MAGI indicator cell line and can be quantitated by monitoring β-galactosidase activity. After an overnight incubation at 37° C. after coculture, β-galactosidase enzymatic activity was measured with the Mammalian β-galactosidase Chemiluminescent Assay Kit (Gal-Screen from Applied Biosystems). The peptide inhibitor concentrations at which activities were reduced by 50% (IC50) relative to control samples lacking peptide inhibitor were calculated by fitting data to the variable-slope-sigmoid equation using the Prism program.
Cell-cell fusion (i.e., syncytium formation) was assayed by co-culturing CHO[HIVe] […] Cell fusion allows the expression of nuclear β-galactosidase from the U373-MAGI indicator cell line and can be quantitated by monitoring β-galactosidase activity.

[5] = target: IZN17 (stable model of the gp41 N-terminal three strand coiled-coil); assay: Saturation binding of fluorescein-labeled peptide 12 with IZN17 (fluorescence polarization); parameters: species or system HIV-1; settings: saturation binding curve, PBS buffer at 25° C.
Method: FIG. 14 is a graph showing the saturation binding curve of fluorescein-labeled peptide 12 with IZN17 in PBS buffer at 25° C.
The relative affinity of peptides 1-10 for IZN17 (i.e., peptide 11) was determined using a fluorescence polarization-based competitive binding assay (Eckert & Kim, “Design of Potent Inhibitors of HIV-1 Entry from the gp41 N-Peptide Region,” Proc. Nat'l Acad. Sci. U.S.A. 98:11187-92 (2001); Stephens et al., “Inhibiting HIV Fusion with a β-Peptide Foldamer,” J. Am. Chem. Soc. 127:13126-7 (2005), which are hereby incorporated by reference in their entirety) with fluorescein-labeled peptide 12, shown in FIG. 13. FIG. 14 is a graph showing the saturation binding curve of fluorescein-labeled peptide 12 with IZN17 in PBS buffer at 25° C.
A previously described fluorescence polarization assay was utilized to determine the in vitro binding affinity of unconstrained peptides and HBS helices for a stable model of the gp41 N-terminal three strand coiled-coil, IZN17, which contains the binding site for residues W628, W631, and 1635 (see Example 3, supra) (Eckert & Kim, “Design of Potent Inhibitors of HIV-1 Entry from the gp41 N-Peptide Region,” Proc. Nat'l Acad. Sci. U.S.A. 98:11187-92 (2001), which is hereby incorporated by reference in its entirety). […]

In the case of CC[C@H](C)[C@H](NC(=O)[C@H](CCC(=O)O)NC(=O)[C@H](CCCNC(=N)N)NC(=O)[C@H](CC(=O)O)NC(=O)[C@H](Cc1c[nH]c2ccccc12)NC(=O)[C@H](CCC(=O)O)NC(=O)[C@H](CCSC)NC(=O)[C@H](Cc1c[nH]c2ccccc12)NC(=O)[C@@H](NC(=O)[C@H](CCSC)NC(C)=O)[C@@H](C)O)C(=O)N[C@@H](CC(N)=O)C(=O)N[C@@H](CC(N)=O)C(=O)N[C@@H](Cc1ccc(O)cc1)C(=O)N[C@H](C(N)=O)[C@@H](C)O [peptide 1, AcMTWMEWDREINNYT-NH2, reference compound] (Ac-MTWMEWDREINNYT-NH2), the Kd ([1]; PBS pH 7.4, 0.1% pluronic F-68, 25° C., 25 μM IZN17, 15 nM probe 12, values much lower than probe Kd are upper limits, read-out: Kd, binding affinity for IZN17 (competition assay)) is listed as 37 µM, the “Helicity by CD, result in words” value [2] is listed as “unstructured or very weakly helical” and the “Activity in cell-cell fusion assays as previously shown (Sia et al.)” value [3] is listed as “ineffective in cell-cell fusion assays”.
For CC[C@H](C)[C@H](NC(=O)[C@H](CCCCN)NC(=O)[C@H](CCCCN)NC(=O)[C@@H](NC(=O)[C@H](Cc1ccc(O)cc1)NC(=O)[C@H](CCC(=O)O)NC(=O)[C@H](CCC(=O)O)NC(=O)[C@@H](NC(=O)[C@H](CCCCN)NC(=O)[C@H](CCCCN)NC(=O)[C@H](CC(=O)O)NC(=O)[C@H](Cc1c[nH]c2ccccc12)NC(=O)[C@H](CCC(=O)O)NC(=O)[C@H](CCC(=O)O)NC(=O)[C@H](Cc1c[nH]c2ccccc12)NC(=O)[C@@H](NC(=O)[C@H](CCSC)NC(C)=O)[C@@H](C)O)[C@@H](C)CC)[C@@H](C)O)C(N)=O [peptide 10, AcMTWEEWDKKIEEYTKKI—NH2] (Ac-MTWEEWDKKIEEYTKKI-NH2), the “Binding to IZN17, result in words” value [1] was “bound IZN17 with a similar affinity as 9” and the “Cell fusion inhibition, result in words” value ([4]; concentrations up to 200 μM) was “remained ineffective in the cell culture assay”.
Molecule “Suc-MTWMEWDERINNYTC^Flu-NH2 [peptide 12]” has a Kd [5] of 24 µM.
For CC[C@H](C)[C@H](NC(=O)[C@H](CCCCN)NC(=O)[C@H](CCCCN)NC(=O)[C@@H](NC(=O)[C@H](Cc1ccc(O)cc1)NC(=O)[C@H](CCC(=O)O)NC(=O)[C@H](CCC(=O)O)NC(=O)[C@@H](NC(=O)[C@H](CCCCN)NC(=O)[C@H](CCCCN)NC(=O)[C@H](CC(=O)O)NC(=O)[C@H](Cc1c[nH]c2ccccc12)NC(=O)[C@H](CCC(=O)O)NC(=O)[C@H](CCC(=O)O)NC(=O)[C@H](Cc1c[nH]c2ccccc12)N1CC=CCCC(=O)N[C@@H](CCSC)C(=O)N[C@@H]([C@@H](C)O)C1=O)[C@@H](C)CC)[C@@H](C)O)C(N)=O [compound 9, XMTWEEWDKKIEEYTKKI], the EC50 ([4]; overnight coculture at 37° C., β-galactosidase readout, read-out: EC50, inhibition of gp41-mediated cell fusion) was 43 µM.
For “XMTWMEWDREINNYT ({4‑pentenoyl}-MTWMEWDREINNYT; staple (positions not given here); also: hydrogen bond surrogate, N-allyl residue position not given here) [compound 2]”, the “Binding to IZN17, result in words” value [1] was “did not bind the target protein with higher affinity”.
